Reference: patent publication US20220259193A1, “KCNT1 INHIBITORS AND METHODS OF USE” (Praxis Precision Medicines, Inc., priority 2019, published 2022)

Target: T1, KCNT1 (KNa1.1, Slack) (Homo sapiens, UniProt Q5JUK3)
T1 construct: expressed in transfected cells; host or cells: HEK-TREX (tetracycline-inducible HEK cell line)
T1 sequence (Q5JUK3 1-1230): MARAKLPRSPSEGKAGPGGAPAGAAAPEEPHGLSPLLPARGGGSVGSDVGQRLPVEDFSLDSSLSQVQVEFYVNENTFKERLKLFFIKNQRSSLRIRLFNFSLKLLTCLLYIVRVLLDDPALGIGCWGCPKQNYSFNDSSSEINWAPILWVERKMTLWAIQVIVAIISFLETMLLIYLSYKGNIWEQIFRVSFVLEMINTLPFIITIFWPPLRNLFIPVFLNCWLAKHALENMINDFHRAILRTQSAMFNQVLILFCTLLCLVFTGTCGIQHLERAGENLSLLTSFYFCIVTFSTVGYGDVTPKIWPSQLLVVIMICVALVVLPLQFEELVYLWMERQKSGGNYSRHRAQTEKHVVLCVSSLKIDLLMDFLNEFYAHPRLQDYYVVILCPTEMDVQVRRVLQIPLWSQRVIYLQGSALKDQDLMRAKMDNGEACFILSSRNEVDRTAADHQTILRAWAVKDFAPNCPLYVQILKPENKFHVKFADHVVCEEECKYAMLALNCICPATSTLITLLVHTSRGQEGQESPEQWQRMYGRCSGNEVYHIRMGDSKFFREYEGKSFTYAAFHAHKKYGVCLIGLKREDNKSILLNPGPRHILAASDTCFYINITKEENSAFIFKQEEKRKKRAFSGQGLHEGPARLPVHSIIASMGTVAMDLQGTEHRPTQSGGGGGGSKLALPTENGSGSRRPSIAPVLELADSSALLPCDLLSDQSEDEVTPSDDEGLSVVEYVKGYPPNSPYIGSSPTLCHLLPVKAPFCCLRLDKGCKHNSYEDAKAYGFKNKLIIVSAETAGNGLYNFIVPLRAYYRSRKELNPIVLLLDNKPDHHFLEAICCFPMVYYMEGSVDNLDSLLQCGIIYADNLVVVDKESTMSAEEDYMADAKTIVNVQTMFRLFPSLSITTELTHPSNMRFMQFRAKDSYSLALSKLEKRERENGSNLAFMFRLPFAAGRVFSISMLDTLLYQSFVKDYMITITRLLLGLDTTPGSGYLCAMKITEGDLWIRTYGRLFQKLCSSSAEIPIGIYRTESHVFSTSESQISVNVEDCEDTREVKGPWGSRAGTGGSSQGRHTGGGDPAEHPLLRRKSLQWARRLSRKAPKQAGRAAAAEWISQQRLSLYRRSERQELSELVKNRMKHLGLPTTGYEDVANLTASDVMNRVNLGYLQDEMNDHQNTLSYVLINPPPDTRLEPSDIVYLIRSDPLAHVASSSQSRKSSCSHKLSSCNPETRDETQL
Assay: KCNT1 patch clamp assay (SyncroPatch 384PE automated patch clamp)
Assay type: cell-based
Conditions: tetracycline inducible HEK-TREX cell line; perforated patch; step from −80 mV to 0 mV; room temperature; read-out: KCNT1-WT IC50
Method: KCNT1—Patch Clamp Assay Inhibition of KCNT1 (KNa1.1, Slack) was evaluated using a tetracycline inducible cell line (HEK-TREX). Currents were recorded using the SyncroPatch 384PE automated, patch clamp system. Pulse generation and data collection were performed with PatchController384 V1.3.0 and DataController384 V1.2.1 (Nanion Technologies). The access resistance and apparent membrane capacitance were estimated using built-in protocols. Current were recorded in perforated patch mode (10 μM escin) from a population of cells. […] The cells were allowed to recover in the cell hotel prior to experimentation. Currents were recorded at room temperature. […] The extracellular solution was used as the wash, reference and compound delivery solution. […] Escin is made at a 5 mM stock in water, aliquoted, and stored at −20° C. The compound plate was created at 2× concentrated in the extracellular solution. The compound was diluted to 1:2 when added to the recording well. The amount of DMSO in the extracellular solution was held constant at the level used for the highest tested concentration. A holding potential of −80 mV with a 100 ms step to 0 mV was used. […] The average mean current from 3 sweeps was calculated and the % inhibition of each compound was calculated. The % Inhibition as a function of the compound concentration was fit with a Hill equation to derive IC50, slope, min and max parameters.

SMILES | IC50
Cc1nn(C(C)(C)C)cc1C(=O)N[C@@H](C)c1nc(-c2cccc(F)c2)no1 [Compound 150] | ≤ 1000 nM
C[C@H](NC(=O)c1cn(CC(F)(F)F)nc1C1CC1)c1nc(-c2cccc(F)c2)no1 [Compound 151] | 1000 to 20000 nM
Cc1nn(C2CCOCC2)cc1C(=O)N[C@@H](C)c1nc(-c2cccc(F)c2)no1 [Compound 152] | 1000 to 20000 nM
Cc1nn(C(C)C)cc1C(=O)N[C@@H](C)c1nc(-c2cccc(F)c2)no1 [Compound 153] | ≤ 1000 nM
Cc1nn(-c2ccc(F)cc2)cc1C(=O)N[C@@H](C)c1nc(-c2cccc(F)c2)no1 [Compound 154] | ≤ 1000 nM
C[C@H](NC(=O)c1cn(C)nc1C1CCC1)c1nc(-c2cccc(F)c2)no1 [Compound 155] | 1000 to 20000 nM
COCc1nn(C)cc1C(=O)N[C@@H](C)c1nc(-c2cccc(F)c2)no1 [Compound 156] | ≥ 20000 nM
Cn1nc(C(F)(F)F)cc1C(=O)NC(CNC(=O)OCc1ccccc1)c1nc(-c2cccc(F)c2)no1 (stereo not shown) [Compound 157, benzyl N-[2-[3-(3-fluorophenyl)-1,2,4-oxadiazol-5-yl]-2-[[2-methyl-5-(trifluoromethyl)pyrazole-3-carbonyl]amino]ethyl]carbamate] | 1000 to 20000 nM
Cc1nn(C2CC2)cc1C(=O)N[C@@H](C)c1nc(-c2cccc(F)c2)no1 [Compound 161] | 1000 to 20000 nM
C[C@H](NC(=O)c1cn(C)nc1C(C)(C)C)c1nc(-c2cccc(F)c2)no1 [Compound 162] | 1000 to 20000 nM
Cc1nn(CC(F)F)cc1C(=O)N[C@@H](C)c1nc(-c2cccc(F)c2)no1 [Compound 163] | 1000 to 20000 nM
Cc1nn(CC(F)(F)F)cc1C(=O)N[C@@H](C)c1nc(-c2cccc(F)c2)no1 [Compound 164] | 1000 to 20000 nM
CCn1cc(C(=O)N[C@@H](C)c2nc(-c3cccc(F)c3)no2)c(C(F)(F)F)n1 [Compound 165] | ≤ 1000 nM
C[C@H](NC(=O)c1cn(C)nc1C1CCOCC1)c1nc(-c2cccc(F)c2)no1 [Compound 166] | 1000 to 20000 nM
C[C@@H](NC(=O)c1cn(C)nc1C(F)F)c1nc(-c2cccc(F)c2)no1 [Compound 187, (R)-3-(difluoromethyl)-N-(1-(3-(3-fluorophenyl)-1,2,4-oxadiazol-5-yl)ethyl)-1-methyl-1H-pyrazole-4-carboxamide] | ≥ 20000 nM
C[C@H](NC(=O)c1cn(C)nc1C(F)F)c1nc(-c2cccc(F)c2)no1 [Compound 188, (S)-3-(difluoromethyl)-N-(1-(3-(3-fluorophenyl)-1,2,4-oxadiazol-5-yl)ethyl)-1-methyl-1H-pyrazole-4-carboxamide] | 1000 to 20000 nM

Continued, values first:

IC50 | SMILES
1000 to 20000 nM | C[C@H](NC(=O)c1cn(C)nc1C(F)(F)F)c1nc(-c2cccc(F)c2)no1 [Compound 160]
1000 to 20000 nM | Cn1nc(C(F)(F)F)cc1C(=O)NC(CN)c1nc(-c2cccc(F)c2)no1 (stereo not shown) [Compound 167, N-[2-amino-1-[3-(3-fluorophenyl)-1,2,4-oxadiazol-5-yl]ethyl]-2-methyl-5-(trifluoromethyl)pyrazole-3-carboxamide]
1000 to 20000 nM | COC(=O)NCC(NC(=O)c1cc(C(F)(F)F)nn1C)c1nc(-c2cccc(F)c2)no1 (stereo not shown) [Compound 168]
1000 to 20000 nM | Cn1nc(C(F)(F)F)cc1C(=O)NC(CNS(C)(=O)=O)c1nc(-c2cccc(F)c2)no1 (stereo not shown) [Compound 169]
≤ 1000 nM | COCCC(NC(=O)c1cc(C(F)(F)F)nn1C)c1nc(-c2cccc(F)c2)no1 (stereo not shown) [Compound 170]
1000 to 20000 nM | Cn1nc(C(F)(F)F)cc1C(=O)NC(CS(C)(=O)=O)c1nc(-c2cccc(F)c2)no1 (stereo not shown) [Compound 171]
1000 to 20000 nM | CC(NC(=O)c1cc(C(F)(F)F)nn1C)c1nc(-c2cccc(CO)c2)no1 (stereo not shown) [Compound 176, N-(1-(3-(3-(hydroxymethyl)phenyl)-1,2,4-oxadiazol-5-yl)ethyl)-1-methyl-3-(trifluoromethyl)-1H-pyrazole-5-carboxamide]
≥ 20000 nM | CC(c1nc(-c2cccc(CO)c2)no1)N(C)C(=O)c1cc(C(F)(F)F)nn1C (stereo not shown) [Compound 177, N-(1-(3-(3-(hydroxymethyl)phenyl)-1,2,4-oxadiazol-5-yl)ethyl)-N,1-dimethyl-3-(trifluoromethyl)-1H-pyrazole-5-carboxamide]
1000 to 20000 nM | CC(NC(=O)c1cc(C(F)(F)F)nn1C)c1nc(-c2cccc(CC#N)c2)no1 (stereo not shown) [Compound 178, N-(1-(3-(3-(cyanomethyl)phenyl)-1,2,4-oxadiazol-5-yl)ethyl)-1-methyl-3-(trifluoromethyl)-1H-pyrazole-5-carboxamide]
1000 to 20000 nM | CC(NC(=O)c1cc(C(F)(F)F)nn1C)c1nc(-c2cccc(S(C)(=O)=O)c2)no1 (stereo not shown) [Compound 179, 1-methyl-N-(1-(3-(3-(methylsulfonyl)phenyl)-1,2,4-oxadiazol-5-yl)ethyl)-3-(trifluoromethyl)-1H-pyrazole-5-carboxamide]
≥ 20000 nM | CC(NC(=O)c1cc(C(F)(F)F)nn1C)c1nc(-c2cccc(S(N)(=O)=O)c2)no1 (stereo not shown) [Compound 180, 1-methyl-N-(1-(3-(3-sulfamoylphenyl)-1,2,4-oxadiazol-5-yl)ethyl)-3-(trifluoromethyl)-1H-pyrazole-5-carboxamide]
≤ 1000 nM | COC(=O)c1cccc(-c2noc(C(C)NC(=O)c3cc(C(F)(F)F)nn3C)n2)c1 (stereo not shown) [Compound 181, methyl 3-(5-(1-(1-methyl-3-(trifluoromethyl)-1H-pyrazole-5-carboxamido)ethyl)-1,2,4-oxadiazol-3-yl)benzoate]
≥ 20000 nM | CC(NC(=O)c1cc(C(F)(F)F)nn1C)c1nc(-c2cccc(C(=O)O)c2)no1 (stereo not shown) [Compound 182, 3-(5-(1-(1-methyl-3-(trifluoromethyl)-1H-pyrazole-5-carboxamido)ethyl)-1,2,4-oxadiazol-3-yl)benzoic Acid]
≥ 20000 nM | CC(NC(=O)c1cc(C(F)(F)F)nn1C)c1nc(-c2cccc(C(=O)N(C)C)c2)no1 (stereo not shown) [Compound 183, N-(1-(3-(3-(dimethylcarbamoyl)phenyl)-1,2,4-oxadiazol-5-yl)ethyl)-1-methyl-3-(trifluoromethyl)-1H-pyrazole-5-carboxamide]
1000 to 20000 nM | CC(NC(=O)c1cc(C(F)(F)F)nn1C)c1nc(-c2cccc(O)c2)no1 (stereo not shown) [Compound 186, N-(1-(3-(3-hydroxyphenyl)-1,2,4-oxadiazol-5-yl)ethyl)-1-methyl-3-(trifluoromethyl)-1H-pyrazole-5-carboxamide]
≥ 20000 nM | CC(NC(=O)c1cc(C(F)(F)F)nn1C)c1nc(-c2cccc(C(N)=O)c2)no1 (stereo not shown) [Compound 193, N-(1-(3-(3-carbamoylphenyl)-1,2,4-oxadiazol-5-yl)ethyl)-1-methyl-3-(trifluoromethyl)-1H-pyrazole-5-carboxamide]
≤ 1000 nM | COc1cccc(-c2noc([C@H](C)NC(=O)c3cc(C(F)(F)F)nn3C)n2)c1 [Compound 196, (S)—N-(1-(3-(3-methoxyphenyl)-1,2,4-oxadiazol-5-yl)ethyl)-1-methyl-3-(trifluoromethyl)-1H-pyrazole-5-carboxamide]
≤ 1000 nM | CC[C@H](NC(=O)c1cc(C(F)(F)F)nn1C)c1nc(-c2ccnc(C)c2)no1 [Compound 199, (S)-1-methyl-N-(1-(3-(2-methylpyridin-4-yl)-1,2,4-oxadiazol-5-yl)propyl)-3-(trifluoromethyl)-1H-pyrazole-5-carboxamide]
